Data: patent publication EP0338042B1, “COMPOSITION AND METHOD FOR TREATING HEPATITIS VIRUS INFECTIONS USING 1-(2'-DEOXY-2'-FLUORO-BETA-D-ARABINOFURANOSYL)-5-ETHYLURACIL” (priority 1987, dated 1989)
Where “and” joins values, the source holds several entries; their conditions need not be identical. Equal values may be shown once. Read-outs that look alike come from different tables or passages of the source.

Assays:
[1] = test system: woodchuck hepatitis virus (WHV); test: Inhibition of WHV replication in chronically infected woodchucks (DNA polymerase activity); format: in vivo, woodchucks (Marmota monax); conditions: for WHV replication by day 60: all 5 animals
Experimental: All woodchucks bearing chronic active hepatitis virus (Hantz, supra) were administered FMAU twice daily by interperitoneal injections of FMAU in the following dosages:
Studies were then undertaken to evaluate FMAU and FEAU in this animal model using woodchucks naturally chronically-infected with woodchuck hepatitis virus (24). It was assumed that these nucleosides would be anabolized to their nucleoside triphosphates within the animal. WHV replication was measured periodically by the endogenous DNA polymerase activity and by the detection of WHV DNA by the dot-blot hybridization assay. Three different dosages of FMAU and FEAU were investigated. FMAU at 2 mg/kg/day x 5, (given intraperitoneally TABLE VIII
In accordance with the procedures of Example 2, the FEAU inhibition of WHV replication was further studied at different doses administered orally to woodchucks through stomach tubes. Two groups of woodchucks with different initial WHV replication values were examined.
Seven woodchucks with high WHV replication were tested. High replication was defined as over 1000 counts per minute of DNA polymerase activity, and the mean replication was 1600.
Seven woodchucks with low WHV replication were tested. Low replication was defined as lower than 1000 counts per minute of DNA polymerase activity, and the mean replication was 600-800.

[2] = test system: Vero cells; conditions: cytotoxic effect measured in rapidly dividing cells; read-out: ID₅₀; cited from earlier work
[3] = test system: HSV-2(G); conditions: plaque reduction in Vero cells, cited from earlier work
[4] = test system: RAT BONE MARROW CELLS; test: Inhibition of thymidine incorporation into DNA; format: cell-based; conditions: Bone marrow cell, read-out: ED50 FOR […] INC[…] DNA, RAT BONE MARROW CELLS, read-out: ED50 FOR INHIBITING THYMIDINE INCORPORATION INTO DNA, RAT BONE MARROW CELLS
[5] = target: T1, HL-60 CELLS MIT[…] (Homo sapiens, UniProt O00142); test: Phosphorylation by thymidine kinase relative to thymidine; format: biochemical; conditions: thymidine at 400 µM
T1 construct: cytosol and mitochondrial TK's derived from the HL-60 human cell line; endogenous in cells; host or cells: HL-60
T1 sequence (O00142 34-265): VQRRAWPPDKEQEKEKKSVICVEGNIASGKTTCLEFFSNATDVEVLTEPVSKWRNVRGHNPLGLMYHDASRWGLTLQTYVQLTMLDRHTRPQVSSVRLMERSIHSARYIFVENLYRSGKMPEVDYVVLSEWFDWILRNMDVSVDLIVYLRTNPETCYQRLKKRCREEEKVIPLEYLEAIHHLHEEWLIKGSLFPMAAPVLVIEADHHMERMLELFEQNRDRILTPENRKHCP
From the text: (§1) It is generally accepted that the selective anti-herpes activity of 2′-fluoro-arabinosylpyrimidine nucleosides is associated in large measure with their ability to be recognized as good substrates for HSV-specified thymidine kinase (TK), but not by the host TK (14, 15). […] By contrast, FEAU is a very poor substrate for the host HL-60 derived TKs (13). […] Their data also indicate that, in uninfected Vero cells, FEAU would be phosphorylated at a very low rate in the presence of thymidine.

[6] = target: HSV-2 (STRAIN 333) TK (Human herpesvirus 2, UniProt P04407); test: as above; format: biochemical; conditions: thymidine at 400 µM
Sequence of HSV-2 (STRAIN 333) TK (P04407 whole entry): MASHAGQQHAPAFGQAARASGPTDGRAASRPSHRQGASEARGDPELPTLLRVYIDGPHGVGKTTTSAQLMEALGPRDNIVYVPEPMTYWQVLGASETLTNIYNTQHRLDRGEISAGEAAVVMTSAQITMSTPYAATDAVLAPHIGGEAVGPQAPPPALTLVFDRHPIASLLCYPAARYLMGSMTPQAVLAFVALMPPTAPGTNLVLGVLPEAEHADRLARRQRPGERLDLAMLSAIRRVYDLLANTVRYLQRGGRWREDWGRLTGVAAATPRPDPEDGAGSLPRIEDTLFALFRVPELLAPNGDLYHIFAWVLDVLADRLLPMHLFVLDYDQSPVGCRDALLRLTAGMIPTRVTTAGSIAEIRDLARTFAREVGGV
From the text: as §1

[7] = target: HSV-1 (STRAIN KOS) TK (Human herpesvirus 1, UniProt P17402); test: as above; format: biochemical; conditions: thymidine at 400 µM
Sequence of HSV-1 (STRAIN KOS) TK (P17402 whole entry, looked up): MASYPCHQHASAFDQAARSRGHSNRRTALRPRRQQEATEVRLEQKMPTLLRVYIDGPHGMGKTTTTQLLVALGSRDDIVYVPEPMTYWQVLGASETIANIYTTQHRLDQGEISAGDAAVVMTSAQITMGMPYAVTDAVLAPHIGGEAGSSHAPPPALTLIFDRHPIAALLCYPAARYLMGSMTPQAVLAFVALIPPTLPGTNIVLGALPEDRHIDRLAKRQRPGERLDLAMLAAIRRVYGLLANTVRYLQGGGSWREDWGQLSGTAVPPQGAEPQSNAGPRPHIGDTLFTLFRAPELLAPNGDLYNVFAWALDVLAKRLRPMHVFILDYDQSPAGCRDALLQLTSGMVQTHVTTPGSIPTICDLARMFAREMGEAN
From the text: as §1

[8] = test system: HSV-1(F); conditions: plaque reduction in Vero cells, cited from earlier work
[9] = cited from earlier work
[10] = test system: Vero cells; test: Inhibition of cell growth; format: cell-based, African green monkey; conditions: Chlorocebus sabaeus, read-out: ED50 FOR INHIBITING CELL GROWTH IN VERO CELLS
[11] = test system: L-1210; test: Incorporation of 2-14C-labeled nucleoside into DNA of cells; format: cell-based, rodent; conditions: FEAU also not detectable at 100 μM
From the text: There was no detectable incorporation of FEAU radioactivity into the DNA of either L-1210 or Vero cell lines, but substantial amounts of FMAU radioactivity were incorporated into the DNA of both cell lines. When HSV-1 infected Vero cells were exposed to ¹⁴C-labeled FEAU and FMAU, both nucleosides incorporated into the DNA of these virus-infected cells.

[12] = test system: L-1210 CELLS; test: Inhibition of thymidine incorporation into DNA; format: cell-based, rodent; conditions: Mus musculus, L1210, read-out: ED50 FOR […] INC[…] DNA, L-1210 CELLS; read-out: ED50 FOR INHIBITING THYMIDINE INCORPORATION INTO DNA, L-1210 CELLS
[13] = test system: P-815 CELLS; test: Inhibition of thymidine incorporation into DNA; format: cell-based, rodent; conditions: Mus musculus, P815, read-out: ED50 FOR […] INC[…] DNA, P-815 CELLS; read-out: ED50 FOR INHIBITING THYMIDINE INCORPORATION INTO DNA, P-815 CELLS
[14] = Toxicity in dogs
[15] = 0.2 mg/kg/day, FMAU x 5, FEAU x 10

SMILES: CCc1cn([C@@H]2O[C@H](CO)[C@@H](O)[C@@H]2F)c(=O)[nH]c1=O [FEAU, 1-(2'-deoxy-2'-fluoro-beta-D-arabino-furanosyl)-5-ethyl-uracil]
- anti-WHV effect ([1]; 0.04 mg/kg/day x 10): somewhat diminished anti-WHV effect
- suppression of viral replication [1, 15]: equally effective
- toxicity [1, 15]: nontoxic
- inhibitory activity after cessation of drug administration ([1]; 0.2 or 2 mg doses, slow return to pretreatment levels): remained significant over a six-week period
- WHV replication by the twenty-third day ([1]; high replication woodchucks (>1000 cpm), oral 0.2 mg/kg/day, four of five still above normal level (50 cpm)): lowered replication values
- WHV replication by day 60 ([1]; high replication woodchucks, oral 0.2 mg/kg/day, raised to 1 mg/kg/day on day 24 in four of five): completely inhibited
- WHV replication ([1]; i.p. 2 mg/kg/day x 10): almost immediate suppression
- weight loss ([1]; in vivo): about 10%
- toxicity ([1]; in vivo, ip, 2 mg/kg/day): did not exhibit any toxic effects
- toxicity ([1]; in vivo, po, 0.2 mg/kg/day): without any observed toxicity
- WHV replication by the twenty-third day ([1]; low replication woodchucks (<1000 cpm), oral 0.04 mg/kg/day, two of five still above normal level): lowered replication values
- WHV replication by day 60 ([1]; low replication woodchucks, oral 0.04 mg/kg/day, raised to 0.2 mg/kg/day on day 24 in two of five): completely inhibited
- WHV replication ([1]; oral administration, 0.2 mg/kg/day x 10, one woodchuck, preliminary): significant suppression
- CC50 [2]: 200 µM
- EC50 ([3]; read-out: HSV-2(G) ED₅₀): 0.24 µM
- EC90 ([3]; read-out: HSV-2(G) ED₉₀): 0.91 µM
- EC50 [4]: 3700 µM
- PERCENTAGE RATES OF PHOSPHORYLATION (RELATIVE TO THYMIDINE), HL-60 CELLS MITOCHONDRIAL TK [5]: 219.0%
- PERCENTAGE RATES OF PHOSPHORYLATION (RELATIVE TO THYMIDINE), HSV-2 (STRAIN 333) TK [6]: 203.2% and 146.6%
- PERCENTAGE RATES OF PHOSPHORYLATION (RELATIVE TO THYMIDINE), HSV-1 (STRAIN KOS) TK [7]: 82.7% and 42.0%
- EC50 ([8]; read-out: HSV-1(F) ED₅₀): 0.024 µM
- EC90 ([8]; read-out: HSV-1(F) ED₉₀): 0.26 µM
- toxicity ([9]; in vivo experiments with mice): relatively nontoxic
- toxicity ([9]; normal (uninfected) mice, 800 mg/kg/day given twice daily for 4 days): non-toxic
- EC50 [10]: > 200 µM
- INCORPORATION INTO DNA AT 10μM, L-1210 [11]: NOT DETECTABLE*
- EC50 [12]: 630 µM
- EC50 [13]: 700 µM
- toxicity ([14]; 50 mg/kg/day x 10, preliminary studies): moderate toxicity
- lethal dose ([14]; FMAU i.v. x 5, FEAU x 10 (preliminary)): 100 mg/kg/day
